Experimental data reported in patent US11821042B2, “Targeting chromosomal instability and downstream cytosolic DNA signaling for cancer treatment” (Cornell University, priority 2017, dated 2023).

Tested on: MDA-MB-231 cells
Test: In vitro invasion assay through collagen membrane (CytoSelect)
Assay type: cell-based, human
Settings: addition to MCAK (CIN-low) cells
Method: For the invasion and migration/chemotaxis assays the CytoSelect cell invasion (CBA-110) and cell migration (CBA-100) kits, respectively, were used. Briefly, 3×10^5 cells were suspended in serum-free media and placed on top of the membrane. […] For the chemotaxis assay, we used a colorimetric approach (OD 560 nm) for quantification. For the scratch assay, cells were treated with mitomycin C (10 μgml^−1) for 1 hour when they reached >90% confluence and then placed in DMEM containing 1% FBS. Wounds were applied using p200 pipette tip and images of the wound were taken immediately and at subsequent regular intervals. ImageJ was used for quantification of wound surface area.

With `Nc1nc2c(ncn2[C@@H]2O[C@@H]3COP(=O)(O)O[C@H]4[C@@H](O)[C@H](n5cnc6c(N)ncnc65)O[C@@H]4COP(=O)(O)O[C@@H]2[C@@H]3O)c(=O)[nH]1` [cGAMP, cyclic guanosine monophosphate-adenosine monophosphate] the “ability to migrate and invade through a collagen membrane” value was “increased”.
